ChEMBL document CHEMBL4364251, “Design, synthesis and biological evaluation of new quinoline derivatives as potential antitumor agents” (Eur J Med Chem, 2019)
Activity calls are given as the source filed them. No cut-off for these calls is given here.

How the values were obtained:
NCI-H1650 = assay: Antiproliferative activity against human NCI-H1650 cells incubated for 48 hrs by MTT assay; assay type: functional, cell-based; settings: NCI-H1650, 48 h
HCT-116 [1] = assay: Induction of apoptosis in human HCT116 cells assessed as late apoptotic cells at 4 uM incubated for 24 hrs by annexin-V-FITC/PI staining based FACS analysis (reference value: 1.55 to 1.56%); assay type: functional
HCT-116 [2] = assay: Induction of apoptosis in human HCT116 cells assessed as viable cells at 4 uM incubated for 24 hrs in presence of pan-caspase inhibitor z-VAD-FMK by annexin-V-FITC/PI staining based FACS analysis (reference value: 85.28%); assay type: functional; settings: HCT-116, 24 h, read-out: Activity
HCT-116 [3] = assay: Induction of apoptosis in human HCT116 cells assessed as necrotic cells at 8 uM incubated for 24 hrs by annexin-V-FITC/PI staining based FACS analysis (reference value: 0.71 to 2.26%); assay type: functional
HCT-116 [4] = assay: Induction of apoptosis in human HCT116 cells assessed as early apoptotic cells at 8 uM incubated for 24 hrs in presence of pan-caspase inhibitor z-VAD-FMK by annexin-V-FITC/PI staining based FACS analysis (reference value: 8.08%); assay type: functional
HCT-116 [5] = assay: Induction of apoptosis in human HCT116 cells assessed as late apoptotic cells at 8 uM incubated for 24 hrs in presence of pan-caspase inhibitor z-VAD-FMK by annexin-V-FITC/PI staining based FACS analysis (reference value: 6.04%); assay type: functional
HCT-116 [6] = assay: Induction of apoptosis in human HCT116 cells assessed as early apoptotic cells at 8 uM incubated for 24 hrs by annexin-V-FITC/PI staining based FACS analysis (reference value: 1.77 to 3.38%); assay type: functional
HCT-116 [7] = assay: Induction of morphological changes in human HCT116 cells assessed as cell shrinkage at 4 to 10 uM incubated for 24 hrs by phase-contrast microscopic method; assay type: functional, cell-based
A2780 = assay: Antiproliferative activity against human A2780 cells incubated for 48 hrs by MTT assay; assay type: functional, cell-based; settings: A2780, 48 h
HCT-116 [8] = assay: Induction of morphological changes in human HCT116 cells assessed as reduction in cell number at 4 to 10 uM incubated for 24 hrs by phase-contrast microscopic method; assay type: functional, cell-based
HCT-116 [9] = assay: Induction of apoptosis in human HCT116 cells assessed as late apoptotic cells at 4 uM incubated for 24 hrs in presence of pan-caspase inhibitor z-VAD-FMK by annexin-V-FITC/PI staining based FACS analysis (reference value: 6.04%); assay type: functional
HCT-116 [10] = assay: Induction of apoptosis in human HCT116 cells deficient in p53 assessed as increase in pro-caspase3 protein expression level at 4 to 8 uM incubated for 24 hrs by Western blot analysis; assay type: functional, cell-based
Mus musculus = assay: Antitumour activity against mouse […] cells implanted in BALB/c mouse assessed as decrease in tumour volume at 80 mg/kg administered once every three days for 21 days post tumour implantation and measured at day 13 by caliper method; assay type: functional, organism-based
HCT-116 [11] = assay: Induction of apoptosis in human HCT116 cells assessed as necrotic cells at 4 uM incubated for 24 hrs by annexin-V-FITC/PI staining based FACS analysis (reference value: 0.71 to 2.26%); assay type: functional
RKO [12] = assay: Antiproliferative activity against human RKO cells incubated for 48 hrs by MTT assay; assay type: functional, cell-based
HeLa = assay: Antiproliferative activity against human HeLa cells incubated for 48 hrs by MTT assay; assay type: functional, cell-based
HCT-116 [13] = assay: Antiproliferative activity against human HCT116 cells incubated for 48 hrs by MTT assay; assay type: functional, cell-based; settings: HCT-116, 48 h
[14] = Antitumour activity against mouse […] cells implanted in BALB/c mouse assessed inhibition in tumour growth at 80 mg/kg administered once every three days for 21 days post tumour implantation relative to control; assay type: functional; settings: read-out: TGI
HCT-116 [15] = assay: Induction of autophagy in human HCT116 cells assessed as increase in LC3B-2 protein expression level at 6 uM by Western blot analysis; assay type: functional, cell-based; settings: TDE = time-dependent effect
HCT-116 [16] = assay: Antiproliferative activity against human HCT116 expressing p53 (-/-) at 1 to 16 uM assessed as decrease cell viability incubated for 24 hrs by CCK-8 assay; assay type: functional, cell-based
HCT-116 [17] = assay: Induction of apoptosis in human HCT116 cells assessed as increase in cleaved PARP protein expression level at 4 to 8 uM incubated for 24 hrs in presence of pan-caspase inhibitor z-VAD-FMK by Western blot analysis; assay type: functional, cell-based
HCT-116 [18] = assay: Induction of autophagy in human HCT116 cells assessed as decrease in ATG7 protein expression level incubated for 24 hrs by Western blot analysis; assay type: functional, cell-based
[19] = Toxicity in BALB/c mouse xenografted with mouse […] cells at 80 mg/kg administrated once every three days for 21 days; assay type: organism-based; settings: in vivo, 504 h
HCT-116 [20] = assay: Inhibition of colony formation in human HCT116 cells incubated for 24 hrs followed by compound washout and subsequent incubation for 10 to 14 days by crystal violet staining based assay; assay type: functional, cell-based
HCT-116 [21] = assay: Induction of apoptosis in human HCT116 cells deficient in ATG7 assessed as early apoptotic cells at 8 uM incubated for 24 hrs by annexin-V-FITC/PI staining based FACS analysis (reference value: 2.32%); assay type: functional
BGC-823 = assay: Antiproliferative activity against human BGC823 cells incubated for 48 hrs by MTT assay; assay type: functional, cell-based; settings: BGC-823, 48 h
RKO [22] = assay: Growth inhibition of human RKO cells at 1 uM by CCK-8 assay; assay type: functional, cell-based; settings: TDE = time-dependent effect
HCT-116 [23] = assay: Induction of apoptosis in human HCT116 cells deficient in ATG7 assessed as viable cells at 8 uM incubated for 24 hrs by annexin-V-FITC/PI staining based FACS analysis (reference value: 85.27%); assay type: functional; settings: HCT-116, 24 h, read-out: Activity
HCT-116 [24] = assay: Induction of apoptosis in human HCT116 cells assessed as late apoptotic cells at 8 uM incubated for 24 hrs by annexin-V-FITC/PI staining based FACS analysis (reference value: 1.55 to 1.56%); assay type: functional
HCT-116 [25] = assay: Induction of apoptosis in human HCT116 cells assessed as early apoptotic cells at 4 uM incubated for 24 hrs in presence of pan-caspase inhibitor z-VAD-FMK by annexin-V-FITC/PI staining based FACS analysis (reference value: 8.08%); assay type: functional
HCT-116 [26] = assay: Induction of apoptosis in human HCT116 cells deficient in ATG7 assessed as necrotic cells at 8 uM incubated for 24 hrs by annexin-V-FITC/PI staining based FACS analysis (reference value: 5.58%); assay type: functional
HCT-116 [27] = assay: Induction of apoptosis in human HCT116 cells assessed as viable cells at 4 uM incubated for 24 hrs by annexin-V-FITC/PI staining based FACS analysis (reference value: 94.35 to 94.43%); assay type: functional; settings: HCT-116, 24 h, read-out: Activity
HCT-116 [28] = assay: Induction of apoptosis in human HCT116 cells assessed as viable cells at 8 uM incubated for 24 hrs in presence of pan-caspase inhibitor z-VAD-FMK by annexin-V-FITC/PI staining based FACS analysis (reference value: 85.28%); assay type: functional; settings: HCT-116, 24 h, read-out: Activity
HCT-116 [29] = assay: Induction of apoptosis in human HCT116 cells assessed as early apoptotic cells incubated for 24 hrs by annexin-V-FITC/PI staining based FACS analysis; assay type: functional, cell-based

IC50 (NCI-H1650): 6.3 µM
IC50 (A2780): 3.46 µM
IC50 (HeLa): 2.71 µM
IC50 (HCT-116 [13]): 2.56 µM
IC50 (BGC-823): 9.08 µM
Structure (SMILES): COc1cccc(Nc2ccnc3cc(OCCCc4ccccc4)ccc23)c1
Activity (HCT-116 [1]): 11.64%
viability at 4 µM (HCT-116 [2]): 75.1%
Activity (HCT-116 [3]): 2.19 - 5.82%
Activity (HCT-116 [4]): 19.42%
Activity (HCT-116 [5]): 16%
Activity (HCT-116 [6]): 17.9 - 18.35%
Activity (HCT-116 [7]): Active
Activity (HCT-116 [8]): Active
Activity (HCT-116 [9]): 8.17%
Activity (HCT-116 [10]): Active
Activity (Mus musculus): Active
Activity (HCT-116 [11]): 0.95%
IC50 (RKO [12]): 3.67 µM
inhibition in vivo at 80 mg/kg [14]: 82.1%
Activity (HCT-116 [15]): Tde
Activity (HCT-116 [16]): Active
Activity (HCT-116 [17]): Active
Activity (HCT-116 [18]): Dose-dependent effect
Activity [19]: Non-Toxic
inhibition (HCT-116 [20]): Dose-dependent effect
Activity (HCT-116 [21]): 5.26%
growth inhibition (GI) (RKO [22]): Tde
viability at 8 µM (HCT-116 [23]): 76.7%
Activity (HCT-116 [24]): 15.38 - 17.66%
Activity (HCT-116 [25]): 15.45%
Activity (HCT-116 [26]): 7.04%
viability at 4 µM (HCT-116 [27]): 75.4%
viability at 8 µM (HCT-116 [28]): 62.9%
Activity (HCT-116 [29]): Dose-dependent effect
